Source: PubChem BioAssay (NCI)
Where “and” joins values, the source holds several entries; their conditions need not be identical. Equal values may be shown once.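 Growth conditions: 96-well plates. Treatment: test compound, 48 hours, 5 concentrations. Analysis: linear interpolation between bracketing concentrations; unreached endpoints set to highest concentration. GI50 = concentration required for 50% inhibition of growth. TGI denotes the concentration required for complete inhibition of growth.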

Tests used:
Test in all cases: NCI-60 cell line screen, 48 h
[1] = tested on: T-47D breast
[2] = tested on: OVCAR-5 ovarian
[3] = tested on: HOP-62 NSCLC
[4] = tested on: MDA-MB-231 breast
[5] = tested on: OVCAR-4 ovarian
[6] = tested on: K-562 leukemia
[7] = tested on: SW-620 colon
[8] = tested on: DU-145 prostate
[9] = tested on: M14 melanoma
[10] = tested on: SR leukemia
[11] = tested on: NCI-H23 lung
[12] = tested on: SK-MEL-5 melanoma
[13] = tested on: NCI-H460 lung
[14] = tested on: MOLT-4 leukemia
[15] = tested on: MALME-3M melanoma
[16] = tested on: SK-MEL-2 melanoma
[17] = tested on: NCI/ADR-RES ovarian
[18] = tested on: NCI-H522 lung
[19] = tested on: RXF 393 renal
[20] = tested on: OVCAR-3 ovarian
[21] = tested on: MDA-N
[22] = tested on: IGROV1 ovarian
[23] = tested on: CAKI-1 renal
[24] = tested on: U251 CNS
[25] = tested on: A549 NSCLC
[26] = tested on: 786-0 renal
[27] = tested on: PC-3 prostate
[28] = tested on: UACC-257 melanoma
[29] = tested on: CCRF-CEM leukemia
[30] = tested on: HS 578T breast
[31] = tested on: MCF7 breast
[32] = tested on: UO-31 renal
[33] = tested on: HT29 colon
[34] = tested on: OVCAR-8 ovarian
[35] = tested on: HCC-2998 colon
[36] = tested on: HOP-92 NSCLC
[37] = tested on: BT-549 breast
[38] = tested on: HCT-15 colon
[39] = tested on: RPMI-8226 leukemia
[40] = tested on: SK-OV-3 ovarian
[41] = tested on: EKVX NSCLC
[42] = tested on: SF-295 CNS
[43] = tested on: LOX IMVI melanoma
[44] = tested on: MDA-MB-435
[45] = tested on: KM12 colon
[46] = tested on: NCI-H226 lung
[47] = tested on: SNB-19 CNS
[48] = tested on: ACHN renal
[49] = tested on: TK-10 renal
[50] = tested on: UACC-62 melanoma
[51] = tested on: HL-60(TB) leukemia
[52] = tested on: SF-539 CNS
[53] = tested on: SF-268 CNS
[54] = tested on: A498 renal
[55] = tested on: HCT-116 colon
[56] = tested on: SNB-75 CNS
[57] = tested on: SK-MEL-28 melanoma
[58] = tested on: SN12C renal
[59] = tested on: COLO 205 colon

## O=C(O)c1cc2cc(OCc3ccccc3)ccc2[nH]1
[1]
  TGI: > 100 µM
[2]
  TGI: > 100 µM
[3]
  TGI: > 100 µM
[4]
  TGI: > 100 µM
[5]
  GI50: > 100 µM
  TGI: > 100 µM
[6]
  TGI: > 100 µM
[7]
  TGI: > 100 µM
[8]
  TGI: > 100 µM
[9]
  TGI: > 100 µM
[10]
  TGI: > 100 µM
[11]
  TGI: > 100 µM
[12]
  TGI: > 100 µM
[13]
  TGI: > 100 µM
[14]
  TGI: > 100 µM
[15]
  GI50: 0.198 µM
  TGI: 0.762 µM and 1.56 µM
[16]
  GI50: > 100 µM
  TGI: > 100 µM
[17]
  TGI: > 100 µM
[18]
  TGI: > 100 µM
[19]
  TGI: > 100 µM
[20]
  TGI: > 100 µM
[21]
  TGI: > 100 µM
[22]
  GI50: 52.4 µM
  TGI: > 100 µM
[23]
  GI50: > 84.2 µM
  TGI: > 100 µM
[24]
  TGI: > 100 µM
[25]
  TGI: > 100 µM
[26]
  TGI: > 100 µM
[27]
  TGI: > 100 µM
[28]
  GI50: > 74 µM
  TGI: > 100 µM
[29]
  TGI: > 100 µM
[30]
  GI50: > 85 µM
  TGI: 77.4 µM and > 100 µM
[31]
  GI50: > 100 µM
  TGI: > 100 µM
[32]
  GI50: 1.92 µM
  TGI: > 100 µM
[33]
  GI50: > 100 µM
  TGI: > 100 µM
[34]
  TGI: > 100 µM
[35]
  TGI: > 100 µM
[36]
  GI50: 20.7 µM
  TGI: 92.4 µM and > 100 µM
[37]
  GI50: 59.1 µM
  TGI: > 100 µM
[38]
  TGI: > 100 µM
[39]
  TGI: > 100 µM
[40]
  TGI: > 100 µM
[41]
  TGI: > 100 µM
[42]
  TGI: > 100 µM
[43]
  TGI: > 100 µM
[44]
  TGI: > 100 µM
[45]
  TGI: > 100 µM
[46]
  GI50: > 100 µM
  TGI: 93.1 µM and > 100 µM
[47]
  GI50: > 100 µM
  TGI: > 100 µM
[48]
  TGI: > 100 µM
[49]
  TGI: > 100 µM
[50]
  TGI: > 100 µM
[51]
  TGI: > 100 µM
[52]
  TGI: > 100 µM
[53]
  TGI: > 100 µM
[54]
  GI50: 35.1 µM
  TGI: > 100 µM
[55]
  TGI: > 100 µM
[56]
  GI50: 34.2 µM
  TGI: > 100 µM
[57]
  GI50: 8.32 µM
  TGI: 61.7 µM and > 100 µM
[58]
  TGI: > 100 µM
[59]
  TGI: > 100 µM
